MIC data for 4 compounds are collected here from patent US5824698A, “Antibacterial dibenzimidazole derivatives” (priority 1994, dated 1998).

In brackets after ≈: the same amount, converted by molar mass. Read-outs that look alike come from different tables or passages of the source.

Holding throughout (assay): Antibacterial activity in vitro (MIC, standard agar method)
Assay type in all cases: cell-based

One test deals with E. coli 1527 E. The note with it: Escherichia coli, read-out: Minimum inhibitory concentration (MIC). As for the experimental part:
(§1) The minimum inhibitory concentration (MIC) of the substances investigated against gram-positive and gram-negative strains was determined using standard agar methods. The compounds were dissolved in a small amount of dimethyl sulphoxide, diluted with water and incorporated into liquified DST agar at 50° C. The thus-produced agar plates were used immediately thereafter in the test. The test concentrations lay between 128 and 0.06 μg/ml. The bacterial inoculation solutions were prepared from pre-cultures grown overnight, diluted and applied to the agar surface using an inoculation device (Denley A400). The plates were incubated at 35° C. for 20 hours. The MIC was determined as the lowest concentration of substance which prevented a visible growth. A scarcely visible turbidity and the growth of less than 5 colonies were ignored. The determinations of the antibacterial activities (Tab. 1) were carried out not only for the free bases, but also for the hydrochloride salt of each compound. The same values were obtained within experimental error.

The subject of a further test is P. aeruginosa 799/61. The note with it: Pseudomonas aeruginosa, 799/61, 20 h, read-out: Minimum inhibitory concentration (MIC). As to the method:
as §1

The next test has as its system E. coli 25922. Conditions: read-out: Minimum inhibitory concentration (MIC). As to the method:
as §1

Another test concerns S. marcescens. The note with it: Serratia marcescens, 20 h, read-out: Minimum inhibitory concentration (MIC). As for the experimental part: as §1
The subject of another test is E. faecalis 6. Conditions: read-out: Minimum inhibitory concentration (MIC). As for the experimental part: as §1
The test system of the next test is P. aeroguinosa 3351. Conditions: read-out: Minimum inhibitory concentration (MIC). As to the method:
as §1

The next test relates to Staph. haemolyticus 75. Conditions: Staphylococcus haemolyticus, DST agar, 35° C., 20 hours, read-out: Minimum inhibitory concentration (MIC). As to the method:
as §1

The subject of a further test is Staph. aureus 25923. Conditions: Staphylococcus aureus, DST agar, 35° C., 20 hours, read-out: Minimum inhibitory concentration (MIC). As for the experimental part: as §1
Another test deals with Staph. aureus 887. The note with it: Staphylococcus aureus, DST agar, 35° C., 20 hours, read-out: Minimum inhibitory concentration (MIC). As for the experimental part: as §1
A further test has as its system E. coli DC2. Conditions: Escherichia coli; E. coli DC2; DST agar, 35° C., 20 hours; read-out: Minimum inhibitory concentration (MIC). As to the method:
as §1

The test system of another test is E. cloacae P 99. The note with it: Enterobacter cloacae, P99, 20 h, read-out: Minimum inhibitory concentration (MIC). As for the experimental part:
as §1

The test system of the next test is E. coli H560. Conditions: Escherichia coli, H560, 20 h, read-out: Minimum inhibitory concentration (MIC). As to the method:
as §1

The next test deals with K. oxytoca 1082E. The note with it: Klebsiella oxytoca, DST agar, 35° C., 20 hours, read-out: Minimum inhibitory concentration (MIC). As to the method: as §1
For a further test, the system named is P. aeroginosa BA. Conditions: DST agar, 35° C., 20 hours, read-out: Minimum inhibitory concentration (MIC). As to the method:
as §1

A further test relates to E. coli 1346. Conditions: Escherichia coli, DST agar, 35° C., 20 hours, read-out: Minimum inhibitory concentration (MIC). As for the experimental part:
as §1

Another test has as its system E. coli AS-19. Conditions: Escherichia coli, AS19, DST agar, 35° C., 20 hours, read-out: Minimum inhibitory concentration (MIC). As to the method: as §1
The subject of the next test is B. subtilis ATCC 585369. Conditions: Bacillus subtilis, ATCC585369, DST agar, 35° C., 20 hours, read-out: Minimum inhibitory concentration (MIC). As for the experimental part: as §1
Test [1] concerns E. coli K12 KEA-12 (GyrA). The note with it: Escherichia coli, 20 h, read-out: Minimum inhibitory concentration (MIC). As for the experimental part: as §1
The test system of another test is E. coli B. The note with it: Escherichia coli, DST agar, 35° C., 20 hours, read-out: Minimum inhibitory concentration (MIC). As to the method:
as §1

Where [2] appears, read: Escherichia coli, E. coli 25922, DST agar, 35° C., 20 hours.
The mark [3] stands for this setting: Enterococcus faecalis, E. faecalis 6, DST agar, 35° C., 20 hours.

On to `COc1ccc(-c2nc3ccc(-c4ccc5nc(-c6ccc(OC)cc6)[nH]c5c4)cc3[nH]2)cc1` [Example 8, 2,2'-Bis-(4-methoxy-phenyl)-6,6'-dibenzimidazole], for which the MIC in the test with E. coli 1527 E (E. coli 1527 E, DST agar, 35° C., 20 hours) is more than 12 µg/mL; with P. aeruginosa 799/61, more than 128 µg/mL; with E. coli 25922 (Escherichia coli, 25922, 20 h), more than 128 µg/mL; with S. marcescens, more than 128 µg/mL; with E. faecalis 6 (Enterococcus faecalis, 6, 20 h), more than 128 µg/mL; with P. aeroguinosa 3351 (20 h) it was more than 128 µg/mL. Besides, the MIC in the test on Staph. haemolyticus 75 was not above 0.25 µg/mL; in the test on Staph. aureus 25923, 1 µg/mL (≈ 2.24 µM); in the test with Staph. aureus 887, 0.5 µg/mL (≈ 1.12 µM); in the test with E. coli DC2, 64 µg/mL (≈ 143 µM); in the test with E. cloacae P 99, more than 128 µg/mL; in the test with E. coli H560, more than 128 µg/mL. Besides, the MIC in the test with K. oxytoca 1082E is more than 128 µg/mL; in the test with P. aeroginosa BA, more than 128 µg/mL; in the test with E. coli 1346 it was 8 µg/mL (≈ 17.9 µM); with E. coli AS-19, 32 µg/mL (≈ 71.7 µM); in the test with B. subtilis ATCC 585369 it was 0.5 µg/mL (≈ 1.12 µM); in test [1], more than 128 µg/mL. In the test with E. coli B, the MIC came out at 8 µg/mL (≈ 17.9 µM).
As to `c1coc(-c2nc3ccc(-c4ccc5nc(-c6ccco6)[nH]c5c4)cc3[nH]2)c1` [Example 10, 2,2'-Difuran-2-yl-6,6'-dibenzimidazole], the MIC with E. coli 1527 E (1527E, 20 h) was more than 128 µg/mL; in the test with P. aeruginosa 799/61, more than 128 µg/mL; with E. coli 25922 (setting [2]), more than 128 µg/mL; with S. marcescens, more than 128 µg/mL; with E. faecalis 6 (Enterococcus faecalis, 6, 20 h) it was more than 128 µg/mL; in the test with P. aeroguinosa 3351 (P. aeroguinosa 3351, DST agar, 35° C., 20 hours), more than 129 µg/mL. Besides, the MIC was 0.25 µg/mL (≈ 0.682 µM) with Staph. haemolyticus 75; 4 µg/mL (≈ 10.9 µM) with Staph. aureus 25923; 2 µg/mL (≈ 5.46 µM) with Staph. aureus 887; 1 µg/mL (≈ 2.73 µM) with E. coli DC2; more than 128 µg/mL with E. cloacae P 99; more than 128 µg/mL in the test with E. coli H560. Also, the MIC with K. oxytoca 1082E is more than 128 µg/mL; in the test with P. aeroginosa BA, more than 128 µg/mL; in the test with E. coli 1346, 8 µg/mL (≈ 21.8 µM); in the test with E. coli AS-19 it was 0.5 µg/mL (≈ 1.36 µM); in [1], more than 128 µg/mL.
For `COc1cc(-c2nc3ccc(-c4ccc5nc(-c6ccc(O)c(OC)c6)[nH]c5c4)cc3[nH]2)ccc1O` [Example 3, 4-[2'-(4-Hydroxy-3-methoxy-phenyl)-6,6'-dibenzimidazol-2-yl]-2-methoxy-phenyl], the MIC in the test on E. coli 1527 E (1527E, 20 h) is more than 128 µg/mL; in the test on P. aeruginosa 799/61, more than 128 µg/mL; in the test with E. coli 25922 (Escherichia coli, 25922, 20 h) it was more than 128 µg/mL; in the test on S. marcescens it was more than 128 µg/mL; with E. faecalis 6 (setting [3]), 4 µg/mL (≈ 8.36 µM); with P. aeroguinosa 3351 (20 h), more than 128 µg/mL. In addition, the MIC in the test with Staph. haemolyticus 75 was 4 µg/mL (≈ 8.36 µM); in the test on Staph. aureus 25923, 4 µg/mL (≈ 8.36 µM); in the test on Staph. aureus 887, 8 µg/mL (≈ 16.7 µM); in the test with E. coli DC2, 8 µg/mL (≈ 16.7 µM); with E. cloacae P 99, more than 128 µg/mL; with E. coli H560, more than 128 µg/mL. Moreover, the MIC was more than 128 µg/mL with K. oxytoca 1082E; more than 128 µg/mL with P. aeroginosa BA; 64 µg/mL (≈ 134 µM) in the test on E. coli 1346; more than 128 µg/mL in the test with E. coli AS-19; 32 µg/mL (≈ 66.9 µM) in the test on B. subtilis ATCC 585369; more than 128 µg/mL in test [1]. In addition, the MIC with E. coli B was 16 µg/mL (≈ 33.4 µM).
On to `Nc1ccc(-c2nc3ccc(-c4ccc5nc(-c6ccc(N)cc6)[nH]c5c4)cc3[nH]2)cc1` [Example 7, 4-[2'-(4-Amino-phenyl)-6,6'-dibenzimidazol-2-yl]-phenylamine], for which the MIC in the test on E. coli 1527 E (1527E, 20 h) is more than 128 µg/mL; in the test on P. aeruginosa 799/61, more than 128 µg/mL; with E. coli 25922 (setting [2]) it was more than 128 µg/mL; in the test on S. marcescens, more than 128 µg/mL; with E. faecalis 6 (setting [3]), not above 0.12 µg/mL; in the test on P. aeroguinosa 3351 (20 h), more than 128 µg/mL. The MIC was more than 0.12 µg/mL in the test on Staph. haemolyticus 75; 1 µg/mL (≈ 2.4 µM) in the test on Staph. aureus 25923; 2 µg/mL (≈ 4.8 µM) in the test with Staph. aureus 887; not above 0.12 µg/mL in the test on E. coli DC2; more than 128 µg/mL in the test on E. cloacae P 99; more than 128 µg/mL in the test on E. coli H560. The MIC in the test with K. oxytoca 1082E was more than 128 µg/mL; in the test with P. aeroginosa BA it was more than 128 µg/mL; with E. coli 1346 it was not above 0.12 µg/mL; with E. coli AS-19, 4 µg/mL (≈ 9.6 µM); in the test with B. subtilis ATCC 585369 it was 2 µg/mL (≈ 4.8 µM); in [1], more than 128 µg/mL. Besides, the MIC with E. coli B came to 0.25 µg/mL (≈ 0.6 µM).
